In one assay the target is recombinant CD73 (Homo sapiens (Human), UniProt P21589). The assay can be described thus: Inhibition of the CD73 enzyme in vitro (soluble recombinant CD73, AMP, Malachite Green). Type of assay: biochemical. The conditions noted are these: recombinant CD73 0.5 nM, AMP 50 μM, 30 minutes at room temperature. The protocol:
The concentration of inorganic phosphate was determined using a phosphate standard curve.
recombinant CD73, sequence (P21589 27-547): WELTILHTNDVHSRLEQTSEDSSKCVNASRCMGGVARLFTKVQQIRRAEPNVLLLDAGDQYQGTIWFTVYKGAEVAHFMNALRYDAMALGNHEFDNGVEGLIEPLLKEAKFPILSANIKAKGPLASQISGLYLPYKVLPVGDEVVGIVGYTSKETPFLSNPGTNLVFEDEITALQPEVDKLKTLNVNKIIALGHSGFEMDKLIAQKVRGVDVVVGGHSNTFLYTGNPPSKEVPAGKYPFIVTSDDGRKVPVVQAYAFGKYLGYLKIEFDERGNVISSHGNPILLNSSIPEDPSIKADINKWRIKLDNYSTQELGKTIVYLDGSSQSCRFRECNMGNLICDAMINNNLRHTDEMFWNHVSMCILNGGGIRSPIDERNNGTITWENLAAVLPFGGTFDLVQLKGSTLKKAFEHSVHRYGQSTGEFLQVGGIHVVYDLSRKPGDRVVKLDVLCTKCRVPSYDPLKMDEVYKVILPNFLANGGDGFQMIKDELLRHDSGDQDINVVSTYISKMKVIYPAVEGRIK
Consider `Nc1nc(Cl)nc2c1ncn2[C@@H]1O[C@H](COC(Cc2ccccc2)(C(=O)O)C(=O)O)[C@@H](O)[C@@H]1F` [compound 169], for which the IC50 came to 119 nM. In the case of `Nc1nc(Cl)nc2c1ncn2[C@@H]1O[C@H](COC(Cc2nc3ccccc3s2)(C(=O)O)C(=O)O)[C@@H](O)[C@@H]1F` [compound 97, 2-(((2R,3R,4S,5R)-5-(6-amino-2-chloro-9H-purin-9-yl)-4-fluoro-3-hydroxytetrahydrofuran-2-yl)methoxy)-2-(benzo[d]thiazol-2-ylmethyl)malonic acid], the IC50 was determined as 3430 nM. On the same count and under the same terms, then `Nc1nc(Cl)nc2c1ncn2[C@@H]1O[C@H](COC(Cc2cnn(Cc3ccccc3)c2)(C(=O)O)C(=O)O)[C@@H](O)[C@@H]1F` [compound 63, 2-(((2R,3R,4S,5R)-5-(6-amino-2-chloro-9H-purin-9-yl)-4-fluoro-3-hydroxytetrahydro-furan-2-yl)methoxy)-2-((1-benzyl-1H-pyrazol-4-yl)methyl)malonic acid], with 1220 nM; and `Nc1nc(Cl)nc2c1ncn2[C@@H]1O[C@H](COC(Cc2ccc(-c3ccc(F)cc3)cc2)(C(=O)O)C(=O)O)[C@@H](O)[C@@H]1F` [compound 144], with 65 nM; and `O=C(O)C(Cc1ccccc1)(OC[C@H]1O[C@@H](n2cnc3c(NCc4ccccc4)nc(Cl)nc32)[C@@H](F)[C@@H]1O)C(=O)O` [compound 28, 2-benzyl-2-(((2R,3R,4S,5R)-5-(6-(benzylamino)-2-chloro-9H-purin-9-yl)-4-fluoro-3-hydroxytetrahydrofuran-2-yl)methoxy)malonic acid], with 2650 nM. Same read-out and setting: then `Nc1nc(Cl)nc2c1ncn2[C@@H]1O[C@H](COC(Cc2ccccc2)(C(=O)O)C(=O)O)[C@@H](O)[C@@H]1Cl` [compound 146], with 181 nM; and `Nc1nc(Cl)nc2c1ncn2[C@@H]1O[C@H](COC(Cc2ccc(C(F)(F)F)c(F)c2)(C(=O)O)C(=O)O)[C@@H](O)[C@@H]1F` [compound 60, 2-(((2R,3R,4S,5R)-5-(6-amino-2-chloro-9H-purin-9-yl)-4-fluoro-3-hydroxytetrahydro-furan-2-yl)methoxy)-2-(3-fluoro-4-(trifluoromethyl)benzyl) malonic acid], with 51 nM.

Turning to `Nc1nc(Cl)nc2c1ncn2[C@@H]1O[C@H](COC(Cc2nnn[nH]2)(C(=O)O)C(=O)O)[C@@H](O)[C@@H]1F` [compound 50, 2-((1H-tetrazol-5-yl)methyl)-2-(((2R,3R,4S,5R)-5-(6-amino-2-chloro-9H-purin-9-yl)-4-fluoro-3-hydroxytetrahydrofuran-2-yl)methoxy)malonic acid], the IC50 was determined as 1910 nM. Same read-out and setting: then `Nc1nc(Cl)nc2c1ncn2[C@@H]1O[C@H](COC(Cc2ccc(O)cc2)(C(=O)O)C(=O)O)[C@@H](O)[C@@H]1F` [compound 66, 2-(((2R,3R,4S,5R)-5-(6-amino-2-chloro-9H-purin-9-yl)-4-fluoro-3-hydroxytetrahydrofuran-2-yl)methoxy)-2-(4-hydroxybenzyl) malonic acid], with 133 nM; and `Nc1nc(Cl)nc2c1ncn2[C@@H]1O[C@H](COC(Cc2ccc(-c3cncnc3)cc2)(C(=O)O)C(=O)O)[C@@H](O)[C@@H]1F` [compound 143], with 136 nM. Consider `N#Cc1ccccc1-c1ccc(CC(OC[C@H]2O[C@@H](n3cnc4c(N)nc(Cl)nc43)[C@@H](F)[C@@H]2O)(C(=O)O)C(=O)O)cc1` [compound 95], for which the IC50 came out at 105 nM. Still for that read-out and setting: the same measure for `Nc1nc(Cl)nc2c1ncn2[C@@H]1O[C@H](COC(Cc2cccc(C(F)(F)F)c2)(C(=O)O)C(=O)O)[C@@H](O)[C@@H]1F` [compound 16, 2-(((2R,3R,4S,5R)-5-(6-amino-2-chloro-9H-purin-9-yl)-4-fluoro-3-hydroxytetrahydrofuran-2-yl)methoxy)-2-(3-(trifluoromethyl)benzyl)malonic acid]: 257 nM; for `Nc1nc(Cl)nc2c1ncn2[C@@H]1O[C@H](COC(Cc2ccc(C(=O)NCCC(=O)O)cc2)(C(=O)O)C(=O)O)[C@@H](O)[C@@H]1F` [compound 87, 2-(((2R,3R,4S,5R)-5-(6-amino-2-chloro-9H-purin-9-yl)-4-fluoro-3-hydroxytetrahydro-furan-2-yl)methoxy)-2-(4-((2-carboxy-ethyl)carbamoyl)benzyl) malonic acid]: 83 nM. The same measure, in the same setting: the same measure for `CS(=O)(=O)c1ccc(CC(OC[C@H]2O[C@@H](n3cnc4c(N)nc(Cl)nc43)[C@@H](F)[C@@H]2O)(C(=O)O)C(=O)O)cc1` [compound 153]: 74 nM. Regarding `Cc1nnc(-c2ccc(CC(OC[C@H]3O[C@@H](n4cnc5c(N)nc(Cl)nc54)[C@@H](F)[C@@H]3O)(C(=O)O)C(=O)O)cc2)o1` [compound 94, 2-(((2R,3R,4S,5R)-5-(6-amino-2-chloro-9H-purin-9-yl)-4-fluoro-3-hydroxytetrahydrofuran-2-yl)methoxy)-2-(4-(5-methyl-1,3,4-oxadiazol-2-yl)benzyl) malonic acid], the IC50 was found to be 906 nM. Same read-out and setting: the same measure for `COc1ccc(CC(OC[C@H]2O[C@@H](n3cnc4c(N)nc(Cl)nc43)[C@@H](F)[C@@H]2O)(C(=O)O)C(=O)O)cc1Cl` [compound 85, 2-(((2R,3R,4S,5R)-5-(6-amino-2-chloro-9H-purin-9-yl)-4-fluoro-3-hydroxytetrahydrofuran-2-yl)methoxy)-2-(3-chloro-4-methoxybenzyl)malonic acid]: 183 nM; for `Nc1nc(Cl)nc2c1ncn2[C@@H]1O[C@H](COC(Cc2ccc(OCC(=O)O)cc2)(C(=O)O)C(=O)O)[C@@H](O)[C@@H]1F` [compound 92, 2-(((2R,3R,4S,5R)-5-(6-amino-2-chloro-9H-purin-9-yl)-4-fluoro-3-hydroxytetrahydrofuran-2-yl)methoxy)-2-(4-(carboxymethoxy)benzyl) malonic acid]: 172 nM; for `Nc1nc(Cl)nc2c1ncn2[C@@H]1O[C@H](COC(Cc2cn[nH]c2)(C(=O)O)C(=O)O)[C@@H](O)[C@@H]1F` [compound 64, 2-((1H-pyrazol-4-yl)methyl)-2-(((2R,3R,4S,5R)-5-(6-amino-2-chloro-9H-purin-9-yl)-4-fluoro-3-hydroxytetrahydrofuran-2-yl)methoxy)malonic acid]: 860 nM. Same read-out and setting: the same measure for `C[C@@]1(F)[C@H](O)[C@@H](COC(Cc2ccc(C(=O)O)cc2)(C(=O)O)C(=O)O)O[C@H]1n1cnc2c(N)nc(Cl)nc21` [compound 117]: 63900 nM. On the same count and under the same terms, then `Nc1ncnc2c1ncn2[C@@H]1O[C@H](COC(Cc2cccc(OC(F)(F)F)c2)(C(=O)O)C(=O)OCCN2CCOCC2)[C@@H](O)[C@@H]1F` (stereo partly shown) [compound 139], with 16500 nM; and `Nc1nc(Cl)nc2c1ncn2[C@@H]1O[C@H](COC(Cc2cccc(Oc3ccccc3)c2)(C(=O)O)C(=O)O)[C@@H](O)[C@@H]1F` [compound 13, 2-(((2R,3R,4S,5R)-5-(6-amino-2-chloro-9H-purin-9-yl)-4-fluoro-3-hydroxytetrahydrofuran-2-yl)methoxy)-2-(3-phenoxybenzyl)malonic acid], with 403 nM. In the case of `Nc1nc(Cl)nc2c1ncn2[C@@H]1O[C@H](COC(Cc2csc(C(=O)O)n2)(C(=O)O)C(=O)O)[C@@H](O)[C@@H]1F` [compound 68, 2-(((2R,3R,4S,5R)-5-(6-amino-2-chloro-9H-purin-9-yl)-4-fluoro-3-hydroxytetrahydro-furan-2-yl)methoxy)-2-((2-carboxythiazol-4-yl)methyl)malonic acid], the IC50 worked out at 322 nM. On the same count and under the same terms, the same measure for `CCOC(=O)C(Cc1ccccc1)(OC[C@H]1O[C@@H](n2cnc3c(N)nc(Cl)nc32)[C@H](O)[C@@H]1O)c1nn[nH]n1` (stereo partly shown) [compound 193]: more than 50000 nM; for `Nc1nc(Cl)nc2c1ncn2[C@@H]1O[C@H](COC(Cc2ccccc2)(C(=O)O)C(=O)O)[C@@H](N)[C@H]1O` [compound 51, 2-(((2S,3S,4R,5R)-3-amino-5-(6-amino-2-chloro-9H-purin-9-yl)-4-hydroxytetrahydrofuran-2-yl)methoxy)-2-benzylmalonic acid]: 1870 nM. Same read-out and setting: then `Nc1nc(Cl)nc2c1ncn2[C@@H]1O[C@H](COC(Cc2ccc3oc(C(=O)O)cc3c2)(C(=O)O)C(=O)O)[C@@H](O)[C@@H]1F` [compound 88, 2-(((2R,3R,4S,5R)-5-(6-amino-2-chloro-9H-purin-9-yl)-4-fluoro-3-hydroxytetrahydro-furan-2-yl)methoxy)-2-((2-carboxybenzofuran-5-yl)methyl)malonic acid], with 238 nM. Regarding `Nc1nc(Cl)nc2c1ncn2[C@@H]1O[C@H](COC(Cc2ccc(C(=O)O)cc2)(C(=O)O)C(=O)O)[C@H](O)[C@@H]1F` [compound 145], the IC50 is 106 nM. Same read-out and setting: the same measure for `Nc1nc(Cl)nc2c1ncn2[C@@H]1O[C@H](COC(Cc2c(F)cc(Cl)cc2F)(C(=O)O)C(=O)O)[C@@H](O)[C@@H]1F` [compound 126]: 25300 nM. The same measure, in the same setting: then `Nc1nc(Cl)nc2c1ncn2[C@@H]1O[C@H](COC(Cc2ccc(-c3nnn[nH]3)cc2)(C(=O)O)C(=O)O)[C@@H](O)[C@@H]1F` [compound 54, 2-(4-(1H-tetrazol-5-yl)benzyl)-2-(((2R,3R,4S,5R)-5-(6-amino-2-chloro-9H-purin-9-yl)-4-fluoro-3-hydroxytetrahydro-furan-2-yl)methoxy)malonic acid], with 220 nM; and `CNC(=O)c1ccc(CC(OC[C@H]2O[C@@H](n3cnc4c(N)nc(Cl)nc43)[C@@H](F)[C@@H]2O)(C(=O)O)C(=O)O)cc1` [compound 98, 2-(((2R,3R,4S,5R)-5-(6-amino-2-chloro-9H-purin-9-yl)-4-fluoro-3-hydroxytetrahydrofuran-2-yl)methoxy)-2-(4-(methylcarbamoyl)benzyl) malonic acid], with 512 nM. For the molecule `Nc1nc(Cl)nc2c1ncn2[C@@H]1O[C@H](COC(Cc2csc3ccc(Cl)cc23)(C(=O)O)C(=O)O)[C@@H](O)[C@@H]1F` [compound 96, 2-(((2R,3R,4S,5R)-5-(6-amino-2-chloro-9H-purin-9-yl)-4-fluoro-3-hydroxytetrahydrofuran-2-yl)methoxy)-2-((5-chlorobenzo[b]thiophen-3-yl)methyl)-malonic acid], the IC50 is 788 nM.

The assay is the same for the next values; noted with them: recombinant CD73 0.5 nM, AMP 50 μM; class symbols (Table 4).
`CCOC(=O)C(Cc1ccccc1)(OC[C@H]1O[C@@H](n2cnc3c(NCc4ccccc4)nc(Cl)nc32)[C@H](O)[C@@H]1O)C(=O)OCC`: the IC50 was less than 1000 nM.

What is called IC50 is the point on the concentration scale where inhibition reaches its midpoint.

For the origin of these results see patent US11034715B2, “Ectonucleotidase inhibitors and methods of use thereof” (Calithera Biosciences, Inc., priority 2016, dated 2021).
